The values below are quoted from earlier work in patent US20140323416A1, “5-METHYLDIHYDROMORPHONE COMPOUNDS FOR TREATMENT OF PAIN” (priority 2013, published 2014).

For the compound `CN1CC[C@]23c4c5ccc(O)c4O[C@@]2(C)C(=O)CC[C@H]3[C@H]1C5` [Metopon, metopon], for the setting “in vivo”, the bioavailability result is listed as “low bioavailability” and the emetic action result is on record as “nearly devoid of emetic action”. For the setting “relative to morphine”, the analgesic effectiveness entry is recorded as “at least double to that of morphine”, the duration of action entry was “about equal to that of morphine”, the physical dependence entry is “built up more slowly than with morphine” and the potency entry is reported as “reduced potency relative to morphine”. The tolerance result (relative to morphine) is “develop more slowly and to disappear more quickly”. Besides, the respiratory depression result (therapeutic analgesic doses) is “little or no respiratory depression”. Moreover, where the note is “therapeutic analgesic doses, relative to morphine”, the mental dullness result is reported as “much less mental dullness than morphine”.
